The record followed here is PubChem BioAssay (NCI).

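How tested: cells in 96-well plates exposed to compound for 48 hours at five concentrations. Abbreviation: GI50, concentration required for 50% inhibition of growth. TGI: concentration producing complete growth inhibition.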 Where a SMILES comes first, the peptide text is derived from it. [ ]: non-standard residue; d: D form. Phe(ol) = N[C@H](CO)Cc1ccccc1; dIva = CC[C@@](C)(N)C(=O)O; Aib = CC(C)(N)C(=O)O

This test has as its system MDA-MB-468 breast. The experiment in a line: growth of human tumour cells (NCI), 48 h.
For `COc1ccc(Cn2cc(COc3cc(/C=C/C(=O)c4cc(OC)c(OC)c(OC)c4)ccc3OC)nn2)cc1`, the GI50 was 2.05 µM and the TGI is 7 µM.
On to `CCCCC(=O)N(c1ccc(Nc2c3ccccc3nc3cc([N+](=O)[O-])ccc23)cc1)S(C)(=O)=O`, for which the GI50 is 0.433 µM and the TGI came out at 5.7 µM.
In the case of `NC(=O)c1c(NC(=O)c2cccs2)sc2c1CCC(=O)C2`, the GI50 is 2.58 µM and the TGI is 8.77 µM.
The corresponding values for `C=C1c2nc3ccccc3n2C=C(c2cccc(Cl)c2)N1Cc1ccc(OC)cc1` are 0.784 µM and 17.2 µM.
In the case of `COc1ccc(OC)c(Nc2nc3nonc3nc2Nc2cccc(Br)c2)c1`, the GI50 was 0.343 µM and the TGI was found to be 3.88 µM.
Turning to `Cc1ccc(C[As+](c2ccccc2)(c2ccccc2)c2ccccc2)cc1`, the GI50 was 0.185 µM and the TGI was found to be 1.08 µM.
Regarding `C/C=C/c1cc2c(cc1O)CC[C@@H]1[C@@H]2CC[C@]2(C)[C@@H](O)CC[C@@H]12`, the GI50 was 2.99 µM and the TGI turned out to be 17.1 µM.
The corresponding values for `O=C(Nc1nc(-c2ccc(Cl)cc2)cs1)c1cc(O)c(O)c(O)c1` are 213 µM and 2290 µM.
The corresponding values for `CN1CCC2(CC1)N=C(SCC(=O)Nc1cnc3ccccc3c1)C(c1ccc(Br)cc1)=N2` are 1.76 µM and 3.5 µM.
The corresponding values for `O=C(O)CCC(c1ccccc1)(c1ccccc1)c1ccccc1` are 57.9 µM and greater than 100 µM.
Regarding `CCOc1cc(-c2nncn2C)ccc1Nc1ncc2cc(C)nc(NCC(C)(C)C)c2n1`, the GI50 is greater than 20.2 µM and the TGI was greater than 100 µM.
The corresponding values for `O=C(Oc1ccccc1)N(c1ccccc1)c1ccccc1` are 24 µM and 87.7 µM.
For `CC[C@@](C)(NC(=O)C(C)(C)NC(=O)[C@@H](NC(=O)[C@@H]1CCCN1C(=O)C(C)(C)NC(=O)[C@H](CC(C)C)NC(=O)CNC(=O)C(C)(C)NC(=O)[C@@H](NC(=O)C(C)(C)NC(=O)[C@H](CCC(N)=O)NC(=O)[C@H](C)NC(=O)C(C)(C)NC(=O)[C@H](C)NC(=O)C(C)(C)NC(=O)[C@@H]1CCCN1C(=O)C(C)(C)NC(C)=O)C(C)C)C(C)C)C(=O)N[C@@H](CCC(N)=O)C(=O)N[C@@H](CCC(N)=O)C(=O)N[C@H](CO)Cc1ccccc1` (Ac-[Aib]P[Aib]A[Aib]AQ[Aib]V[Aib]GL[Aib]PV[Aib][dIva]QQ[Phe(ol)]), the GI50 is 0.867 µM and the TGI came to 3.67 µM.
The corresponding values for `Cc1ccc(/C=N/NC(=O)c2ccccc2Oc2ccccc2)o1` are 19.6 µM and 65.7 µM.
The corresponding values for `CN(C)c1ccc(/C=C(\C#N)c2cc3ccccc3[nH]2)cc1` are 0.373 µM and 4.2 µM.
With `Cn1ncc(C#N)c1-c1ccc2c(c1)CN([C@H](CN)Cc1cccc(F)c1)C2=O`, the GI50 was 0.105 µM and the TGI came out at 2.97 µM.
The corresponding values for `CC12OC(CC(O)C1O)n1c3ccccc3c3c4c(c5c6ccccc6n2c5c31)C(=O)N(CCN1CCOCC1)C4=O` (stereo unspecified) are 1.17 µM and 3.19 µM.
On to `CC[C@@H](C)/C=C(C)/C=C/C(=O)c1c(O)c(-c2ccc(OC(=O)[C@@]34CC[C@@](C)(C(=O)O3)C4(C)C)cc2)cn(O)c1=O`, for which the GI50 is 1.32 µM and the TGI is 10.8 µM.
The corresponding values for `COC(=O)[C@]12CC[C@@H](C)[C@H](C)[C@@H]1C1=CC[C@@H]3[C@@]4(C)C(C=O)=C[C@@](C)(CO)[C@@H]4[C@H](O)C[C@@]3(C)[C@]1(C)CC2` are 4.36 µM and 18.9 µM.
The corresponding values for `COc1cccc2c1C(=O)c1c(O)c3c(c(O)c1C2=O)C[C@@](O)(/C(CO)=N/NC(=O)CCCCCN1C(=O)C=CC1=O)C[C@@H]3O[C@H]1C[C@H](N)[C@H](O)[C@H](C)O1` are 0.438 µM and 2.75 µM.
The corresponding values for `Cc1nc2sc(C(=O)Nc3cccc(Br)c3C)c(N)c2cc1C(O)c1ccccc1` (stereo unspecified) are 0.0398 µM and 26 µM.
For `COC(=O)[C@H](Cc1cn(C)cn1)NC(=O)[C@H](CC(=O)OCc1ccccc1)NC(=O)Nc1cc(C(F)(F)F)cc(C(F)(F)F)c1`, the GI50 was 2.1 µM and the TGI is 6.55 µM.
The corresponding values for `C=CCn1c2ccccc2c2c3c(c4c5ccccc5n(CC=C)c4c21)C(=O)N(O)C3=O` are 3.88 µM and 41.9 µM.
`Cn1c(CCCC(=O)O)nc2cc(N(CCCl)CCCl)ccc21`: the GI50 was 17.1 µM and the TGI is greater than 100 µM.
Take `O=C(/C=C/c1ccccc1)c1cccc2ccccc12`: the GI50 was 2 µM and the TGI is 5.64 µM.
For `C#C[C@@]1(O)[C@@H](CO)O[C@@H](n2cc(Br)c3c(Cl)ccnc32)[C@@H]1O`, the GI50 was 0.836 µM and the TGI is greater than 31.6 µM.
The corresponding values for `CN1CCN(CCCNC(=O)c2c3c(n4ccccc24)C(=O)c2ncccc2C3=O)CC1` are 0.637 µM and 1.86 µM.
Regarding `Brc1ccccc2cc(-c3ccccc3)nc1-2`, the GI50 is 4.7 µM and the TGI is greater than 56.6 µM.
For `NCCCNc1nc2ccccc2c2c(=O)c3cc(F)ccc3sc12`, the GI50 is 1.2 µM and the TGI worked out at 2.59 µM.
The corresponding values for `COc1cc2c(cc1OC)C(C(CCCCCC(CCC(C)C)C1NCCc3cc(OC)c(OC)cc31)CCC(C)C)NCC2` (stereo unspecified) are 0.588 µM and 1.25 µM.
As to `CC1=CC(=O)N(c2cccc3c(N4C(=O)C=C(C)C4=O)cccc23)C1=O`, the GI50 is 2.09 µM and the TGI is 5.51 µM.
The corresponding values for `C=C1C(=O)O[C@H]2[C@H]1CC/C(COC(=O)c1cccnc1N)=C\CC[C@@]1(C)O[C@@H]21` are 0.958 µM and 4.18 µM.
The corresponding values for `CCN1CCN(c2nc(C)cc(NCc3cc(Nc4ccnc5cc(Cl)ccc45)ccc3F)n2)CC1` are 1.55 µM and 3.51 µM.
Consider `Cc1ccc(N)cc1[As]=[As]c1cc(N)ccc1C` (stereo unspecified), for which the GI50 was 0.243 µM and the TGI stood at 0.944 µM.
As to `C[C@@H](Nc1cc(F)cc(F)c1)c1cc(C(=O)N(C)C)cc2c(=O)cc(N3CCOCC3)oc12`, the GI50 was 0.692 µM and the TGI came out at 13.1 µM.
The corresponding values for `CCc1nc(C)cn1C(=O)OCc1nc2nc(Cl)nc(N3CCOCC3)c2[nH]1` are 0.925 µM and 2.46 µM.
The corresponding values for `COc1cc(-c2nn(-c3ccc(NC(=O)Nc4cc(C(F)(F)F)cc(C(F)(F)F)c4)cc3)cc2-c2ccncc2)ccc1Cl` are 1.45 µM and 3.35 µM.
The corresponding values for `c1ccc(-c2[nH]ncc2-c2ccnc(-c3ccc(OCCN4CCOCC4)cc3)c2)nc1` are greater than 25 µM and greater than 25 µM.
On to `COc1ccc2c(C3=C(c4cn(C)c5ccccc45)C(=O)NC3=O)coc2c1`, for which the GI50 was 0.278 µM and the TGI came out at 3.48 µM.
The corresponding values for `Cc1sc(C(=O)c2cncnc2N[C@@H]2C[C@H](COS(N)(=O)=O)[C@@H](O)C2)cc1[C@@H]1NCCc2ccc(Cl)cc21` are 0.104 µM and 14.8 µM.
As for `COC(=O)c1c[nH]c2cc(OC(C)C)c(OC(C)C)cc2c1=O`, the GI50 was greater than 100 µM and the TGI was greater than 100 µM.
Turning to `Oc1ccc2c(=S)cc(-c3ccc(Br)cc3)oc2c1O`, the GI50 is 2.08 µM and the TGI came to 6.5 µM.
The corresponding values for `O=C(Nc1ccncc1)C(=O)c1cn(S(=O)(=O)c2cccc(Cl)c2)c2ccccc12` are 0.763 µM and 45.3 µM.
